Reference: publication PMC7602288, “Characterization of Novel Dipeptidyl Peptidase-IV Inhibitory Peptides from Soft-Shelled Turtle Yolk Hydrolysate Using Orthogonal Bioassay-Guided Fractionations Coupled with In Vitro and In Silico Study” (Pharmaceuticals, 2020)
Where two headings read alike, the source gives them in different places. Peptide text beside a SMILES is read from it.

Tests used:
[1] = biological target: T1, human Dipeptidyl-peptidase (DPP-IV) (Homo sapiens, UniProt P27487); test: Stability of synthesized peptides against DPP-IV (pre-incubation experiment, LC-MS and inhibition assay); type: biochemical; conditions: peptide 500 µM; for DPP-IV inhibitory activity, after pre-incubation: after pre-incubation with DPP-IV 3 h at 37 °C
T1 construct: purchased Sigma Chemical Co. (St. Louis, MO, USA)
T1 sequence (P27487 whole entry): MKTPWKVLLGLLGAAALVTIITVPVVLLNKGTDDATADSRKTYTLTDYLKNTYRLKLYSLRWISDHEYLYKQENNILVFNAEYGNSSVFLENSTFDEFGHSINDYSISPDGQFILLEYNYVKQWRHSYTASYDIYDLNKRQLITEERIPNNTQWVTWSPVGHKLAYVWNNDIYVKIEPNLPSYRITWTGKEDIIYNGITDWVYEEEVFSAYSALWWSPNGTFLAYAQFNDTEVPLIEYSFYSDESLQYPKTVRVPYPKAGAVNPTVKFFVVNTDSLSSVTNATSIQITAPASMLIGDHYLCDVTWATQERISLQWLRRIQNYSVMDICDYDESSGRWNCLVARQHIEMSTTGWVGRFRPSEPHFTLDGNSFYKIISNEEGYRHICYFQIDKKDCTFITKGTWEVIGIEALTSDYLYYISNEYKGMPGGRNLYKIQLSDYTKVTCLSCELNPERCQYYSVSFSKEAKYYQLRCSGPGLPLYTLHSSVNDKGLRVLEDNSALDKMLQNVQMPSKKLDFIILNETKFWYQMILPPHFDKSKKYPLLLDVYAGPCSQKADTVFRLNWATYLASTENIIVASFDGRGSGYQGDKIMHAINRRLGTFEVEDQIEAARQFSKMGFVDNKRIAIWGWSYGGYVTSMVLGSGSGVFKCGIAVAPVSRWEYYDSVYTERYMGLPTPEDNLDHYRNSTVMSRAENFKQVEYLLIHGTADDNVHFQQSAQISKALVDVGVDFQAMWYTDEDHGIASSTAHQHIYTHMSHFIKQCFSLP
Protocol: The synthetic peptide was pre-incubated with DPP-IV to determine stability against DPP-IV. […] According to the previous method by Nongonierma et al. with slight modification, 50 μL of peptides (500 µM) dissolved in 1% DMSO were pre-incubated with 100 μL of DPP-IV (1 U/μL) in DPP-IV buffer at 37 °C for 3 h. Consequently, 75 µL of pre-incubation mixture was combined with 25 µL of 2 mM NaOH and 25 µL of 1.6 mM Gly-Pro-p-nitroanilide, and further pre-incubated at 37 °C for 10 min. The mixture was added with 25 µL of DPP-IV buffer and then incubated at 37 °C for 60 min. The reaction was ended using 100 µL of 1M sodium acetate at pH 4.0. The absorbance of each reaction was measured at 405 nm in a SpectraMax 190 Microplate Reader (Molecular Devices, LLC, San Jose, CA, USA) to determine DPP-IV inhibitory activity of peptide after a pre-incubation period. The remaining 75 µL of the original mixture was heat-inactivated at 95 °C for 10 min to end enzyme activity after which it was injected into LC-MS to confirm the stability of the peptide.

[2] = biological target: T1, human Dipeptidyl-peptidase (DPP-IV); test: DPP-IV inhibitory assay (Gly-Pro-p-nitroanilide substrate, absorbance 405 nm); type: biochemical; conditions: synthetic peptide; nonlinear regression, five concentrations
Excerpt: Chinese soft-shelled turtle eggs were collected from Pingtung City, Taiwan. Pepsin (from porcine gastric mucosa), trypsin (from bovine pancreas), α-chymotrypsin (from bovine pancreas, thermolysin (from Geobacillus stearothermophilus), human Dipeptidyl-peptidase (DPP-IV), Gly-Pro-p-nitroaniline (GP_pNA), Iodoacetamide (IAM), and linagliptin were purchased from Sigma Chemical Co. (St. Louis, MO, USA). Formic acid (FA), acetonitrile (ACN), and ammonium bicarbonate (ABC) were acquired from J.T. Baker (Phillipsburg, NJ, USA). Sequencing grade modified trypsin was purchased from Promega (Madison, WI, USA). Trifluoroacetic acid (TFA) was acquired from Alfa Aesar (Lancashire, UK), and Wang resin was obtained from Cleo Salus (Louisville, KY, USA). Deionized water (ddH2O) was collected using the PURELAB® water purification system from ELGA LabWater (Lane End, High Wycombe, UK). All other chemicals used in this study were of reagent grades. HyperSep Retain PEP Polymeric material was purchased from Thermo Scientific Inc. Molecular weight cut-off (3 kDa MWCO) was procured from Millipore (Bedford, MA, USA).
The DPP-IV inhibitory assay was analyzed in triplicate according to the method of Lacroix and Li-Chan using 96-well microplates with slight modification. […] Linagliptin was used as a reference inhibitor in this experiment. All the reagents and samples were dissolved in 1% DMSO buffer. […] The blank and negative control contained 25 µL of 1% DMSO and 25 µL of DPP-IV buffer. The reaction was activated by 50 µL of DPP-IV (1 U/µL) while the blank sample used 50 µL of DPP-IV buffer instead. After 1 h at 37 °C, the mixture was terminated using 100 µL of 1M sodium acetate buffer at pH 4.0. A concentration of peptide that can inhibit fifty percentage of DPP-IV activity was defined as the IC50 value of DPP-IV inhibition peptide. The IC50 value was determined using different concentrations of inhibitor by nonlinear regression of Graphpad Prism 5.0 (GraphPad Software, Inc., La Jolla, CA, USA).

DPP-IV = conditions: cited from earlier work

DPP-IV inhibitory activity, after pre-incubation [1] [%]	DPP-IV inhibitory activity, without pre-incubation [1] [%]	IC50 [2] [µM]	Compound	further results
41.09	52.79	464 ± 5.52	CC(C)C[C@H](NC(=O)[C@@H]1CCCN1C(=O)[C@@H](N)CC(C)C)C(=O)N[C@@H](Cc1ccccc1)C(=O)O [LPLF] (H-LPLF-OH)	–
55.22	76.72	270 ± 15.9	CC(C)C[C@H](N)C(=O)N1CCC[C@H]1C(=O)N[C@@H](CO)C(=O)N[C@@H](Cc1c[nH]c2ccccc12)C(=O)O [LPSW] (H-LPSW-OH)	–
–	–	> 2000	CC(C)C[C@H](NC(=O)[C@@H]1CCCN1C(=O)[C@H](CC(C)C)NC(=O)CNC(=O)[C@@H](NC(=O)[C@@H](N)CC(C)C)C(C)C)C(=O)O [LVGLPL] (H-LVGLPL-OH)	–
58.66	66.14	289 ± 11.9	CC(C)C[C@H](NC(=O)[C@H](C)NC(=O)[C@H](CC(C)C)NC(=O)CNC(=O)[C@@H]1CCCN1C(=O)[C@@H](N)C(C)C)C(=O)O [VPGLAL] (H-VPGLAL-OH)	–
55.28	53.06	433 ± 40.3	CC(C)C[C@H](NC(=O)[C@H](CCC(N)=O)NC(=O)[C@H](CC(C)C)NC(=O)[C@@H](N)Cc1c[nH]c2ccccc12)C(=O)O [WLQL] (H-WLQL-OH)	–
–	–	–	GGPASGPAV	IC50 (DPP-IV; peptides from salmon gelatin): 8140 µM
–	–	–	ILNKEGINY	IC50 (DPP-IV; peptides from camel milk): 348 µM
–	–	–	LPLPL	IC50 (DPP-IV; peptides from milk): 325 µM
